These are literature values, as cited in patent US20230096856A1, “COMBINED TREATMENT REGIMEN OF […]/SEDATION WITH ADMINISTRATION OF P[…] ASSOCIATED WITH REDUCTION IN NEUROP[…]” (priority 2021, published 2023).

One data set concerns BDNF. The settings on record: rats exposed to psychological stress.
A further data set addresses 5-HT2A receptors (Homo sapiens, UniProt P28223).
Data set [1] deals with hallucinogenic experience. The settings on record: in vivo.
The subject of data set [2] is sigma-1 receptors.
Data set [3] has as its system ventral dentate gyrus of the hippocampus. The settings on record: single dose.
Data set [4] deals with Sigma-1 receptors (Homo sapiens, UniProt Q99720). The settings on record: receptors that modulate immune responses in human monocyte-derived dendritic cells.
Chain of Sigma-1 receptors (Q99720 whole entry): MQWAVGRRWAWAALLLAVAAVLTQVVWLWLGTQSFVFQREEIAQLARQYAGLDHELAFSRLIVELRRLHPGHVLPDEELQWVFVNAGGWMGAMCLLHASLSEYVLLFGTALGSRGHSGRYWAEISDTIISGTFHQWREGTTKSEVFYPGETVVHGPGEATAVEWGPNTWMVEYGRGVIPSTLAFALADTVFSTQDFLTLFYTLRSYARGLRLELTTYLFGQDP
Another data set deals with tinnitus. The settings on record: single dose, mice.
The subject of another data set is AMPA receptor. The settings on record: sub-anesthetic dose, animal studies.
The subject of data set [5] is N-methyl-D-aspartate (NMDA) receptors.
For data set [6], the system named is gamma-aminobutyric acid type A receptors. The settings on record: acutely.
Data set [7] has as its system extracellular glutamate levels. The settings on record: rat models.

Chain of 5-HT2A receptors (P28223 whole entry): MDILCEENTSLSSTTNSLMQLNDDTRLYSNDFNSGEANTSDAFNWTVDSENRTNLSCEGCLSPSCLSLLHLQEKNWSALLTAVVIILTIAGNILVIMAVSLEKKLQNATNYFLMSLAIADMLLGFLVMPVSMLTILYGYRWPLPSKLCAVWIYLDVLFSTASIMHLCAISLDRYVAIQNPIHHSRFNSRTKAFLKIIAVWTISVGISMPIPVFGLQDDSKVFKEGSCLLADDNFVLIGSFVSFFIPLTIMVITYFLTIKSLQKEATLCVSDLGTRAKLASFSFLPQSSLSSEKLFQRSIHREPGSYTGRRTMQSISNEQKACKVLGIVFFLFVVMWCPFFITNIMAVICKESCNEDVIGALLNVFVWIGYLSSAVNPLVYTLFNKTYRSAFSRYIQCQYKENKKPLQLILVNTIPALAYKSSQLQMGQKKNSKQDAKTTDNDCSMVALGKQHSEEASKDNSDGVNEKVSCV

Turning to `O=C(c1ccc(F)cc1)C1CCN(CCn2c(=O)[nH]c3ccccc3c2=O)CC1` [ketanserin], in the data set on BDNF, the “BDNF mRNA” value is “reducing the presence BDNF mRNA” and the “immunoreactivity indicative of BDNF presence in brain areas” value is “inhibits BDNF immunoreactivity”.

Turning to `COC(=O)[C@@H]1C[C@H](OC(C)=O)C(=O)[C@H]2[C@@]1(C)CC[C@H]1C(=O)O[C@H](c3ccoc3)C[C@]21C` [salvinorin A], the “interaction with 5-HT2A receptors” value on 5-HT2A receptors was “interact minimally, indirectly, or not at all”.

Take `COc1ccc2[nH]cc(CCN(C)C)c2c1` [5-MeO-DMT, 5-5-Methoxy-N,N-dimethyltryptamine]: in the data set on phospholipase A2 (PLA2), the PLA2 activation entry is given as “differentially strong phospholipase A2 (PLA2) activation”. Moreover, in the data set with human cerebral organoids, the mGluR5 regulation entry was “downregulation of mGluR5”; the “neural plasticity and anti-inflammatory activity” value is “potentiation of neural plasticity and elevated anti-inflammatory activity”. Also, in data set [1], the “duration of acute hallucinogenic state” value was 5 to 20 min and the “duration of hallucinogenic experience” value is 10 to 20 min. In addition, in the data set on sigma-1 receptors [2], the “IFNc and GM-CSF expression” value is reported as “suppressing”; the “secretion level of anti-inflammatory interleukin 10 cytokine” value is reported as “increase the secretion level”. For the same compound, the “cell proliferation and neuronal survivability in the ventral dentate gyrus of the hippocampus” value in data set [3] was “stimulates cell proliferation and neuronal survivability”. Also, in data set [3] (adult mice), the “neurogenesis in the ventral dentate gyrus” value was “enhances neurogenesis”. For the same compound, the “affinity for Sigma-1 receptors” value on Sigma-1 receptors [4] was “functionally significant affinity”. In addition, the tinnitus entry in the data set on tinnitus is “can be reduced”.

Regarding ibogaine, the “interaction with 5-HT2A receptors” value on 5-HT2A receptors is on record as “interact minimally, indirectly, or not at all”.

Take `CC(C)c1cccc(C(C)C)c1O` [propofol]: the “time after induction until desired SR>80% was reached” value in the data set on depression (EEG suppression ratio) is on record as “About five”. Further, the QIDS-SR scale scores result in the data set with depression (after approximately four sessions (1 week), asymptote at approximately 7 sessions (two weeks)) was “significant reduction”. Also, the “average recovery time until oriented to time and place” value in the data set with depression (after eye opening) is 5 to 10 min. In addition, in the data set on depression (in vivo), the “cognitive side effects common for ECT (short term memory loss)” value was “do not occur”, the “effect on efficacy of ECT in treating depression” value is “does not diminish the efficacy”, the “period within which severity of self-report symptoms of moderate to severe depression is reduced” value was 1-2 weeks and the “time to state of unconsciousness upon induction” value is “one”. In the data set with AMPA receptor, the “expression of AMPA pGluR1” value is “increase the expression of AMPA pGluR1 in dose-dependent manner”; the “speed and degree of glutamate-induced desensitization of the AMPA receptor in neurons” value was “can decrease”. Besides, in [5], the “inhibition of NMDA receptors” value is “does not induce inhibition”. The LTP induction entry in data set [6] is “inhibits long term potentiation (LTP) induction”.

Turning to `CNC1(c2ccccc2Cl)CCCCC1=O` (stereo not drawn) [ketamine], the “extracellular glutamate levels in prefrontal-limbic circuitry” value in data set [7] is recorded as “increases extracellular glutamate levels”.
